Data: patent US9464071B2 (priority 2010, dated 2016)
Several values for one entry are separate records, joined by “and”; a condition that tells them apart may be missing. Identical values can stand only once. Counter-ions that a name gives are not always drawn.

| SMILES | melting point |
| --- | --- |
| COc1cc(OC)cc(N(CC2CCN(C(C)C)CC2)c2ccc3ncc(-c4cnn(C)c4)nc3c2)c1 | 168 °C and 168.08 °C |
| CONCCN(c1cc(OC)cc(OC)c1)c1ccc2ncc(-c3cnn(C)c3)nc2c1 | 177 °C |
| COc1cc(OC)cc(N(CCO)c2ccc3ncc(-c4cn[nH]c4)nc3c2)c1 [Compound 2] | 169.26 °C and 169 °C |
| COc1cc(OC)cc(N(CCNC(C)C)c2ccc3ncc(-c4cnn(CCS(C)(=O)=O)c4)nc3c2)c1 | 148 °C |
| COc1cc(OC)cc(N(CC(O)CO)c2ccc3ncc(-c4cnn(C)c4)nc3c2)c1 (stereo not drawn) [Compound 75] | 186 °C and 186.76 °C and 187 °C |
| CCn1cc(-c2cnc3ccc(N(CCNC(C)C)c4cc(OC)cc(OC)c4)cc3n2)cn1 (as salt: HCl) [Compound 135, N-(3,5-Dimethoxyphenyl)-N-[3-(1-ethyl-1H-pyrazol-4-yl)quinoxalin-6-yl]-N′-(1-methylethyl)ethane-1,2-diamine] | 194 °C |
| COc1cc(OCCO)cc(N(CC2CC2)c2ccc3ncc(-c4cn[nH]c4)nc3c2)c1 | 80 °C |
| COc1cc(OC)cc(N(CC2CN(C(C)C)CCO2)c2ccc3ncc(-c4cnn(C)c4)nc3c2)c1 (stereo not drawn) | 88 °C |
| COc1cc(OC)cc(N(C[C@H](O)C(F)(F)F)c2ccc3ncc(-c4cnn(CCCN)c4)nc3c2)c1 (stereo in doubt) | 154 °C |
| COc1cc(OC)cc(N(CC2OCCO2)c2ccc3ncc(-c4cnn(C)c4)nc3c2)c1 | 204.29 °C |
| COc1cc(OC)cc(N(Cc2ccccc2)c2ccc3ncc(-c4cnn(C)c4)nc3c2)c1 | 133.89 °C |
| COc1cc(OC)cc(N(CC#Cc2ncccc2OC)c2ccc3ncc(-c4cnn(C(C)C)c4)nc3c2)c1 | 119 °C |
| COc1cc(OC)cc(N(CC#Cc2nccc(OC)n2)c2ccc3ncc(-c4cnn(C)c4)nc3c2)c1 | 175 °C |
| COc1cc(OC)cc(N(c2ccc3ncc(-c4cnn(C)c4)nc3c2)[C@H]2CC[C@H](NC(C)C)CC2)c1 | 107 °C |
| CC(C)Oc1cccc(N(CC2CC2)c2ccc3ncc(-c4cnn(C)c4)nc3c2)c1 [Compound 22] | 109 °C and 108.61 °C |
| COc1cc(OC)cc(N(CC#Cc2ccnc(N)n2)c2ccc3ncc(-c4cnn(C)c4)nc3c2)c1 | 148 °C |
| COc1cc(OC)cc(N(CCNC2CC(C)(C)NC(C)(C)C2)c2ccc3ncc(-c4cnn(C)c4)nc3c2)c1 | 80 °C |
| COc1cc(OC)cc(N(CC2CC2)c2ccc3ncc(-c4cnn(CC(C)C)c4)nc3c2)c1 | 110 °C |
| Cn1cc(-c2ccc3ncc(N(CC4CC4)c4cccc(OC(F)F)c4)nc3c2)cn1 [Compound 209] | 166.2 °C |
| COc1ccc(OC)c(N(CCO)c2ccc3ncc(-c4cnn(C)c4)nc3c2)c1 | 191.73 °C |
| COc1cc(OC)cc(N(CC2CCOCC2)c2ccc3ncc(-c4cnn(C)c4)nc3c2)c1 [Compound 356] | 154.94 °C |
| COc1cc(OC)cc(N(Cc2csc(C)n2)c2ccc3ncc(-c4cnn(C)c4)nc3c2)c1 [Compound 263] | 168.45 °C |
| COc1cc(OC)cc(N(C/C(C)=N\O)c2ccc3ncc(-c4cnn(C)c4)nc3c2)c1 [Compound 81] | 199 °C |
| COc1cc(OC)cc(N(CC(O)C(F)(F)F)c2ccc3ncc(-c4cnn(C)c4)nc3c2)c1 (single isomer, unassigned) [Compound 148, (2R*)-3-{(3,5-Dimethoxyphenyl)[3-(1-methyl-1H-pyrazol-4-yl)quinoxalin-6-yl]amino}-1,1,1-trifluoropropan-2-ol] | 149.13 °C |

| SMILES | melting point |
| --- | --- |
| COc1cc(OC)cc(N(CCCN2CCC[C@H]2CC#N)c2ccc3ncc(-c4cnn(C)c4)nc3c2)c1 (as salt: HCl) | 135 °C |
| COc1cc(OC)cc(N(Cc2ccc(Cl)s2)c2ccc3ncc(-c4cnn(Cc5ccc(Cl)s5)c4)nc3c2)c1 | 131.39 °C |
| CCOc1cc(F)cc(N(CCN)c2ccc3ncc(-c4cnn(C)c4)nc3c2)c1 [Compound 478] | 70 °C |
| COc1cc(OC)cc(N(CC2CNC(=O)O2)c2ccc3ncc(-c4cnn(C)c4)nc3c2)c1 (stereo not drawn) | 157 °C |
| COc1cc(OC)cc(N(CC#Cc2cccnc2Br)c2ccc3ncc(-c4cnn(C)c4)nc3c2)c1 | 176 °C |
| COc1cc(OC)cc(N(CCN(C)C(C)C)c2ccc3ncc(-c4cnn(C)c4)nc3c2)c1 | 126 °C |
| COc1cc(OC)cc(N(CCN2CC[C@H](C#N)C2)c2ccc3ncc(-c4cnn(C)c4)nc3c2)c1 [Compound 133, (3S)-1-(2-{(3,5-Dimethoxyphenyl)[3-(1-methyl-1H-pyrazol-4-yl)quinoxalin-6-yl]amino}ethyl)pyrrolidine-3-carbonitrile] | 126.47 °C |
| COc1cc(OC)cc(N(Cc2ccc(Cl)cc2)c2ccc3ncc(-c4cnn(C)c4)nc3c2)c1 | 114.12 °C |
| COc1cc(OC)cc(N(Cc2cc(C)no2)c2ccc3ncc(-c4cnn(CCO)c4)nc3c2)c1 [Compound 23] | 134 °C |
| C#CCN(c1cc(OC)cc(OC)c1)c1ccc2ncc(-c3cnn(CC4CCOCC4)c3)nc2c1 | 106 °C |
| COc1cc(OC)cc(N(CCCN2CCC[C@@H]2CC#N)c2ccc3ncc(-c4cnn(C)c4)nc3c2)c1 (as salt: HCl) | 140 °C |
| COc1cc(OC)cc(N(CCCNS(C)(=O)=O)c2ccc3ncc(-c4cnn(C)c4)nc3c2)c1 [Compound 48] | 189 °C and 189.27 °C |
| CCOC(=O)C1CCN(CCN(c2cc(OC)cc(OC)c2)c2ccc3ncc(-c4cnn(C)c4)nc3c2)CC1 [Compound 343] | 80 °C |
| COc1cc(OC)cc(N(CCCN)c2ccc3ncc(-c4cn[nH]c4)nc3c2)c1 [Compound 338] | 198.91 °C |
| C=Cc1cc(OC)cc(N(CC2CC2)c2ccc3ncc(-c4cnn(C)c4)nc3c2)c1 | 146 °C |
| [2H]C([2H])([2H])Oc1cc(OC)cc(N(CCNC(C)C)c2ccc3ncc(-c4cn[nH]c4)nc3c2)c1 [Compound 432] | 251.77 °C |
| COc1cc(F)cc(N(CCCO)c2ccc3ncc(-c4cnn(C)c4)nc3c2)c1 [Compound 565] | 152 °C |
| COc1cc(OC)cc(N(CC2CC2)c2ccc3ncc(-c4cnn(CCNS(=O)(=O)N(C)C)c4)nc3c2)c1 | 160.27 °C |
| COc1cc(OC)cc(N(CCP(=O)(O)O)c2ccc3ncc(-c4cnn(C)c4)nc3c2)c1 (as salt: HBr) | > 260 °C |
| COc1cc(OC)cc(N(CC2CO2)c2ccc3ncc(-c4cnn(C)c4)nc3c2)c1 (stereo not drawn) | 158.57 °C |
| COc1cc(OC)cc(N(CCF)c2ccc3ncc(-c4cnn(C)c4)nc3c2)c1 | 143 °C |
| COc1cc(OC)cc(N(CC(O)C(F)(F)F)c2ccc3ncc(-c4cnn(C)c4)nc3c2)c1 (single isomer, unassigned) [Compound 149, (2S*)-3-{(3,5-Dimethoxyphenyl)[3-(1-methyl-1H-pyrazol-4-yl)quinoxalin-6-yl]amino}-1,1,1-trifluoropropan-2-ol] | 146.61 °C |
| CNC(=O)Cn1cc(-c2cnc3ccc(N(CCCNC(C)C)c4cc(OC)cc(OC)c4)cc3n2)cn1 [Compound 615] | 134 °C |
| COc1cc(OC)cc(N(CC(N)=O)c2ccc3ncc(-c4cnn(C)c4)nc3c2)c1 | 264 °C and 260.14 °C |

| SMILES | melting point |
| --- | --- |
| COc1cc(OC)cc(N(CC#Cc2ccc(C)cn2)c2ccc3ncc(-c4cnn(C)c4)nc3c2)c1 | 155 °C |
| COc1cc(OC)cc(N(CC2CC2)c2ccc3ncc(-c4cnn(C5CCNCC5)c4)nc3c2)c1 | 90 °C |
| COc1cccc(N(CCNC(C)C)c2ccc3ncc(-c4cnn(C)c4)nc3c2)c1 | 247 °C |
| CNCCN(c1cc(OC)cc(OCCO)c1)c1ccc2ncc(-c3cnn(C)c3)nc2c1 | 142 °C |
| COc1cc(OCCN)cc(N(CC2CC2)c2ccc3ncc(-c4cnn(C)c4)nc3c2)c1 [Compound 32] | 80 °C |
| COc1cc(OC)cc(N(CC#Cc2nccn2C)c2ccc3ncc(-c4cnn(C)c4)nc3c2)c1 | 193.25 °C and 192 °C |
| COc1cc(F)cc(N(CC2CC2)c2ccc3ncc(-c4cnn(C)c4)nc3c2)c1 | 142 °C |
| COc1cc(OC)cc(N(CCN)c2ccc3ncc(-c4cn[nH]c4)nc3c2)c1 | 184 °C |
| COc1cc(OC)cc(N(CCN2CCC(F)(F)CC2)c2ccc3ncc(-c4cnn(C)c4)nc3c2)c1 [Compound 431] | 147.77 °C |
| COc1cc(OC)cc(N(CC2CNCCO2)c2ccc3ncc(-c4cnn(C)c4)nc3c2)c1 (stereo not drawn) | 149 °C |
| COc1cc(OC)cc(N(CC2CCN(c3nccc(OC)n3)CC2)c2ccc3ncc(-c4cnn(C)c4)nc3c2)c1 [Compound 839] | 126 °C |
| COc1cc(OC)cc(N(CCNC(C)C)c2ccc3ncc(-c4cnn(CCC#N)c4)nc3c2)c1 [Compound 642] | 127 °C |
| CNC1CCN(CCCN(c2cc(OC)cc(OC)c2)c2ccc3ncc(-c4cnn(C)c4)nc3c2)C1 (stereo not drawn) | 139.15 °C |
| COc1cccc(C#CCN(c2cc(OC)cc(OC)c2)c2ccc3ncc(-c4cnn(C)c4)nc3c2)c1 | 85 °C |
| COc1cc(OC)cc(N(c2ccc3ncc(-c4cnn(C)c4)nc3c2)[C@H]2CC[C@@H](NC(C)C)CC2)c1 | 83 °C |
| COc1cc(OC)cc(N(CC#Cc2cc(OC)nc(OC)n2)c2ccc3ncc(-c4cnn(C)c4)nc3c2)c1 [Compound 913] | 170 °C |
| COc1cc(OC)cc(N(Cc2ccc(Cl)s2)c2ccc3ncc(-c4cn[nH]c4)nc3c2)c1 [Compound 323] | 166.37 °C |
| CCOC(=O)Cn1cc(CN(c2cc(OC)cc(OC)c2)c2ccc3ncc(-c4cnn(C)c4)nc3c2)nn1 | 88 °C |
| CNCCN(c1cc(OC)cc(OC)c1)c1ccc2ncc(-c3cnn(CCO)c3)nc2c1 | 131.93 °C |
| COCCn1cc(-c2cnc3ccc(N(CC4CC4)c4cc(OC)cc(OC)c4)cc3n2)cn1 | 101.91 °C |
| COCCNC(=O)C(C)(C)n1cc(-c2cnc3ccc(N(CC4CC4)c4cc(OC)cc(OC)c4)cc3n2)cn1 | 104.64 °C |
| COc1cc(OCCO)cc(N(CCN)c2ccc3ncc(-c4cnn(C)c4)nc3c2)c1 | 165 °C |
| COc1cc(OC)cc(N(CC2COCC(C)(C)N2)c2ccc3ncc(-c4cnn(C)c4)nc3c2)c1 (stereo not drawn) | 157 °C |
| COc1cccnc1C#CCN(c1ccc2ncc(-c3cnn(C)c3)nc2c1)c1c(F)c(OC)cc(OC)c1F | 202 °C |
